Data set [1] in a line: Acceleration test (40° C./75% relative humidity), synthetic tocopherol vs co-crystal, total tocopherol content. The class given is physicochemical. Here is the method:
The content was determined by HPLC, the content was calculated by the external standard method, and the content is calculated based on the total tocopherol content. Both the initial tocopherol contents in the synthetic tocopherol itself and in the co-crystals were set at 100%.

Data set [2] in a line: High temperature test (60° C.), content by HPLC and appearance. The class given is physicochemical. Here is the method:
(§1) The content was determined by HPLC, and the content was calculated by the external standard method.

Data set [3] in a line: Strong light irradiation test (5500 Lux), content by HPLC and appearance. The format is physicochemical. As to conditions: 25° C. Here is the method: as §1
A short description of data set [4]: Accelerated test stability (40° C./75% relative humidity), D-α-tocopherol vs co-crystal. The format is physicochemical. Here is the method: as §1
A short description of data set [5]: Long-term test stability (25° C./60% relative humidity). The format is physicochemical. The conditions noted are these: Month 0, initial content set at 100%. Here is the method:
as §1

The conditions of data set [6]: 200 g lean beef, 69 mg co-crystal or same equivalent, stored at 2-4° C. for 8 days.
Experimental: A. the lean beef was cut into pieces with a size of about 2×2 cm, 200 grams for each.
All samples were placed in a metal dish, numbered and stored at 2-4° C. for 8 days.

Turning to `Cc1c(C)c2c(c(C)c1O)CCC(C)(CCCC(C)CCCC(C)CCCC(C)C)O2` (racemic) [synthetic tocopherol, DL-α-tocopherol], the content is 100.0% in data set [1] (Month 0, initial set at 100%) and 94.1% in data set [1] (Month 1).

`Cc1c(C)c2c(c(C)c1O)CC[C@@](C)(CCC[C@H](C)CCC[C@H](C)CCCC(C)C)O2` [D-α-tocopherol]: the content came out at 100% in data set [2] (Day 0, HPLC, initial content set at 100%); 96.7% in data set [2] (Day 5, % of initial content); 89.4% in data set [2] (Day 10, % of initial content); 78.7% in data set [2] (Day 20, % of initial content); 77.3% in data set [2] (Day 30, % of initial content); 100% in data set [3] (near UV 90 μW/cm^2, Day 0, initial content set at 100%). For the same compound, the content amounted to 97.8% in data set [3] (near UV 90 μW/cm^2, Day 5); 91.8% in data set [3] (near UV 90 μW/cm^2, Day 10); 88.5% in data set [3] (near UV 90 μW/cm^2, Day 20); 100% in data set [4] (Month 0, initial content set at 100%); 98.0% in data set [4] (Month 1); 99.1% in data set [4] (Month 2). Also, in data set [5], the content is given as 100.0%.

In the case of “co-crystal of D-α-tocopherol and L-proline”, in data set [6], the “flavor (rancidity) of beef” value is “except for the sample added with the co-crystal of D-α-tocopherol and L-proline, both of the other two samples have rancidity”; the “meat color of beef” value was “can delay the darkening and greening of beef”.
